# Data from patent US20220088024A1, “METHODS FOR TREATING CANCER USING TOZADENANT” (Biotie Therapies, Inc., priority 2018, published 2022).
# Assay: Example 12: pharmacokinetics of tozadenant tablets (180 mg single dose, bioequivalence study) in humans
# Assay type: in vivo
# Settings: both sexes, plasma, oral, 180 mg (approximately 2.6 mg/kg in 70 kg human)
# Method: In a clinical study, tozadenant was administered PO as tablets under fasted conditions, as a single administration at 180 mg. This was an open-label, single-center, randomized, 2-treatment, 2-way crossover bioequivalence study testing 2 different tablet formulation of tozadenant. A modified formulation of tozadenant has been developed for use in Phase 3 studies. The modified formulation for use in Phase 3 studies contains four fewer excipients compared to the Phase 2 formulation. This study, therefore, evaluated the bioequivalence of the Phase 3 formulation and the Phase 2 formulation.
# Thirty-six (36) healthy adult, non-tobacco using male and female subjects were enrolled to ensure completion by 32 subjects. […]
# The following PK parameters were calculated from the individual plasma tozadenant concentration-time data. All PK parameters were calculated using Phoenix WinNonlin® Version 6.3. […] For the calculation of the PK parameters, concentration values below the limit of quantitation (BLQ) were treated as zero before the first quantifiable concentration and as missing thereafter. […]
# AUC and Cmax parameters were not to be calculated for subjects with only 2 or less consecutive time points with detectable concentrations. […]
# Tozadenant was quantitated using a validated liquid chromatography/tandem mass spectrometry method with a lower limit of quantitation (LLOQ) of 0.00500 μg/mL.
compound,measurement,value
"COc1ccc(N2CCOCC2)c2sc(NC(=O)N3CCC(C)(O)CC3)nc12 [SYN-115, 4-hydroxy-4-methyl-piperidine-1-carboxylic acid (4-methoxy-7-morpholin-4-yl-benzothiazol-2-yl)-amide]",AUC,20600 ng·h/mL
